Results published in US20100284985A1, “Composition” (Danisco A/S, priority 2007, published 2010).

Tests used:
Assay in all cases: MIC assay, LAE
[1] = tested on: Lactobacilllus sakei DCS 608; assay type: cell-based, Lactobacillus sakei; conditions: Latilactobacillus sakei, DCS608, ppm of the active component
Procedure: (§1) The Minimal Inhibition Concentration Assay (MIC) is a 96 well liquid based assay developed for a semi-automated assessment system and performed essentially as described in (7). […] From an overnight culture […] of each strain was inoculated in one well corresponding to an approximate inoculation density of 10^3-10^4 cells/well. Media used were CASO, MRS and YM (Appendix 1). Strains were incubated at 20° C., 25° C., 37° C. and under aerobic/anaerobic conditions depending on the preferred conditions for the particular strain (Appendix 1). At time zero, after adding the AM, the optical density (O.D.) of the bacterial culture is measured at 620 nm and then again after 24 hours. […] MIC is defined as the lowest concentration of the AM that will inhibit measurable growth. A bacteriostatic effect is defined as the OD620 at 24 h being less than or equal to 20% of the growth control.

[2] = tested on: Lactobacilllus curvatus DCS 609; assay type: cell-based, Lactobacillus curvatus; conditions: Latilactobacillus curvatus, DCS609, ppm of the active component
Procedure: as §1

[3] = tested on: Leuconostoc mesenteroides ss DCS 512; assay type: cell-based
Procedure: as §1

[4] = tested on: Brochothrix thermosphacta DCS 780; assay type: cell-based
Procedure: as §1

[5] = tested on: Bacillus licheniformis DCS 561; assay type: cell-based
Procedure: as §1

[6] = tested on: Bacillus weihenstephanensis DCS 565; assay type: cell-based
Procedure: as §1

Pichia anomala DCS 603 = assay type: cell-based
Procedure: as §1

[7] = tested on: Clostridium sporogenes (spores) DCS 541sp; assay type: cell-based; conditions: ppm of the active component
Procedure: as §1

[8] = tested on: Zygosaccharomyces bailii DCS 538; assay type: cell-based
Procedure: as §1

Listeria innocua DCS 17 = assay type: cell-based
Procedure: as §1

[9] = tested on: Rhodotorula mucilaginosa H116; assay type: cell-based; conditions: ppm of the active component
Procedure: as §1

Bacillus cereus DCS 500 = assay type: cell-based
Procedure: as §1

[10] = tested on: Citrobacter freundii DCS 566; assay type: cell-based
Procedure: as §1

Leuconostoc spp. DCS 947 = assay type: cell-based; conditions: ppm of the active component
Procedure: as §1

Candida pulcherrima H117 = assay type: cell-based; conditions: ppm of the active component
Procedure: as §1

[11] = tested on: Salmonella typhimurium DCS 218; assay type: cell-based; conditions: ppm of the active component
Procedure: as §1

[12] = tested on: Clostridium sporogenes DCS 808; assay type: cell-based
Procedure: as §1

[13] = tested on: Staphylococcus aureus DCS 630; assay type: cell-based
Procedure: as §1

[14] = tested on: Clostridium algidicarnis DCS 563; assay type: cell-based
Procedure: as §1

[15] = tested on: Lactobacilllus farciminis DCS 611; assay type: cell-based; conditions: ppm of the active component
Procedure: as §1

[16] = tested on: Candida tropicalis DCS 604; assay type: cell-based
Procedure: as §1

[17] = tested on: Bacillus licheniformis (spores) DCS 561sp; assay type: cell-based; conditions: ppm of the active component
Procedure: as §1

[18] = tested on: Salmonella typhimurium DCS 223; assay type: cell-based; conditions: ppm of the active component
Procedure: as §1

[19] = tested on: Clostridium sporogenes DCS 541; assay type: cell-based
Procedure: as §1

[20] = Leuconostoc mesenteroides, SSDCS512, ppm of the active component
[21] = Brochothrix thermosphacta, DCS780, ppm of the active component
[22] = Bacillus licheniformis, DCS561, ppm of the active component
[23] = Bacillus mycoides, DCS565, ppm of the active component
[24] = Hansenula anomala, DCS603, ppm of the active component
[25] = Zygosaccharomyces bailii, DCS538, ppm of the active component
[26] = Listeria innocua, DCS17, ppm of the active component
[27] = Bacillus cereus, DCS500, ppm of the active component
[28] = Citrobacter freundii, DCS566, ppm of the active component
[29] = Salmonella enterica, TYPHIMURIUM
[30] = Clostridium sporogenes, DCS808, ppm of the active component
[31] = Staphylococcus aureus, DCS630, ppm of the active component
[32] = Clostridium algidicarnis, DCS563, ppm of the active component
[33] = Candida tropicalis, DCS604, ppm of the active component
[34] = Clostridium sporogenes, DCS541, ppm of the active component

CCCCCCCCCCCC(=O)N[C@@H](CCCNC(=N)N)C(=O)OCC.Cl [LAE, N^α-Lauroyl-L-arginine ethyl ester monohydrochloride]
MBC [1]: > 166 µg/mL
MIC [1]: 32.8 µg/mL
MBC [2]: > 166 µg/mL
MIC [2]: 32.8 µg/mL
MBC [3, 20]: > 166 µg/mL
MIC [3, 20]: 41 µg/mL
increased lag phase ([3]; ppm of the active component): 32.8 ppm
MBC [4, 21]: 9.7 µg/mL
MIC [4, 21]: 8.1 µg/mL
increased lag phase ([4]; ppm of the active component): 4.3 ppm
MBC [5, 22]: 14.6 µg/mL
MIC [5, 22]: 14.6 µg/mL
increased lag phase ([5]; ppm of the active component): 4.3 ppm
MBC [6, 23]: 14.6 µg/mL
MIC [6, 23]: 14.6 µg/mL
increased lag phase ([6]; ppm of the active component): 10.5 ppm
MBC (Pichia anomala DCS 603; [24]): 111 µg/mL
MIC (Pichia anomala DCS 603; [24]): 73.8 µg/mL
increased lag phase (Pichia anomala DCS 603; ppm of the active component): 32.8 ppm
MBC ([7]; Clostridium sporogenes): 14.6 µg/mL
MIC ([7]; Clostridium sporogenes): 9.7 µg/mL
increased lag phase [7]: 9.7 ppm
MBC [8, 25]: 6.5 µg/mL
MIC [8, 25]: 6.5 µg/mL
increased lag phase ([8]; ppm of the active component): 4.3 ppm
MBC (Listeria innocua DCS 17; [26]): 21.9 µg/mL
MIC (Listeria innocua DCS 17; [26]): 12.1 µg/mL
increased lag phase (Listeria innocua DCS 17; ppm of the active component): 5.4 ppm
MBC ([9]; Rhodotorula mucilaginosa): 6.5 µg/mL
MIC ([9]; Rhodotorula mucilaginosa): 6.5 µg/mL
increased lag phase [9]: 4.3 ppm
MBC (Bacillus cereus DCS 500; [27]): 14.6 µg/mL
MIC (Bacillus cereus DCS 500; [27]): 12.1 µg/mL
increased lag phase (Bacillus cereus DCS 500; ppm of the active component): 6.5 ppm
MBC [10, 28]: 21.9 µg/mL
MIC [10, 28]: 18.2 µg/mL
increased lag phase ([10]; ppm of the active component): 8.1 ppm
MBC (Leuconostoc spp. DCS 947; Leuconostoc): > 166 µg/mL
MIC (Leuconostoc spp. DCS 947; Leuconostoc): 32.8 µg/mL
increased lag phase (Leuconostoc spp. DCS 947): 32.8 ppm
MBC (Candida pulcherrima H117; Metschnikowia pulcherrima): 14.6 µg/mL
MIC (Candida pulcherrima H117; Metschnikowia pulcherrima): 9.7 µg/mL
increased lag phase (Candida pulcherrima H117): 6.5 ppm
MBC [11, 29]: 49.2 µg/mL
MIC [11, 29]: 32.8 µg/mL
increased lag phase [11]: 12.1 ppm
MBC [12, 30]: 9.7 µg/mL
MIC [12, 30]: 9.7 µg/mL
increased lag phase ([12]; ppm of the active component): 9.7 ppm
MBC [13, 31]: 18.3 µg/mL
MIC [13, 31]: 14.6 µg/mL
increased lag phase ([13]; ppm of the active component): 14.6 ppm
MBC [14, 32]: 14.9 µg/mL
MIC [14, 32]: 9.7 µg/mL
increased lag phase ([14]; ppm of the active component): 6.5 ppm
MBC [15]: > 166 µg/mL
MIC [15]: 49.2 µg/mL
increased lag phase [15]: 49.2 ppm
MBC [16, 33]: 4.3 µg/mL
MIC [16, 33]: 4.3 µg/mL
increased lag phase ([16]; ppm of the active component): 4.3 ppm
MBC ([17]; Bacillus licheniformis): 61.5 µg/mL
MIC ([17]; Bacillus licheniformis): 6.5 µg/mL
increased lag phase [17]: 6.5 ppm
MBC [18, 29]: 32.8 µg/mL
MIC [18, 29]: 21.9 µg/mL
increased lag phase [18]: 14.6 ppm
MBC [19, 34]: 9.7 µg/mL
MIC [19, 34]: 9.7 µg/mL
increased lag phase ([19]; ppm of the active component): 9.7 ppm
